From patent US20150147417A1, “METHOD AND PHARMACEUTICAL COMPOSITION FOR LIVER FIBROSIS PREVENTION AND/OR TREATMENT” (National Dong Hua University, priority 2013, published 2015)

Tests used:
Assay type in all cases: cell-based, male Sprague-Dawley rat
[1] = tested on: NHSC (non-induced hepatic stellate cells); test: Oil red O staining of lipid droplets; conditions: curcumin 25 μM, 12 and 24 h, compared to BL extract treated cells
Description: (§1) Non-induced hepatic stellate cells (NHSC, purity >95%) were isolated from male Sprague-Dawley rat liver, and Thioacetamide (TAA; Fluka Chemie GmbH, Buchs, Switzerland)-induced hepatic stellate cells (THSC, purity >95%) were isolated from TAA-induced fibrotic liver of male Sprague-Dawley rat (Chang et al., 2009). Both cells were maintained in complete DMEM containing 10% heat-inactivated FBS and 1% penicillin/streptomycin. NHSC and THSC cells (1×10^5 cells) were seeded in 6 well plates and incubated at 37° C. overnight. Then, cells were treated with various concentrations of BL extract (100, 250, and 500 μg/ml) or curcumin (25 μM) for 12 and 24 h. Cells were washed twice with PBS and fixed with pre-warmed 3.7% paraformaldehyde for 10 min. Cells were then stained with diluted Oil red O stock solution 0.5% (w/v) in isopropanol (Fluka; buffer/water=3/2) at room temperature for 1 h under the dark. Cells were washed with 50% isopropanol and counter-stained with Hematoxylin (Sigma-Aldrich) for 1 min. Results were photographed using Olympus CKX-41 (Olympus Corporation, Tokyo, Japan). Two kinds of hepatic stellate cells were used; that is, Non-chemical induced hepatic stellate cells (NHSC), and thioacetamide-induced hepatic stellate cells (THSC) for imitating a naturally-occurred activated HSC. […]

[2] = tested on: THSC (thioacetamide-induced hepatic stellate cells); test: Oil red O staining of lipid droplets; conditions: curcumin 25 μM, 12 and 24 h, compared to BL extract treated cells
Description: as §1

NHSC = test: Western blotting of protein expression levels; conditions: curcumin 25 μM
Description: (§2) Non-induced hepatic stellate cells (NHSC, purity >95%) were isolated from male Sprague-Dawley rat liver, and Thioacetamide (TAA; Fluka Chemie GmbH, Buchs, Switzerland)-induced hepatic stellate cells (THSC, purity >95%) were isolated from TAA-induced fibrotic liver of male Sprague-Dawley rat (Chang et al., 2009). Both cells were maintained in complete DMEM containing 10% heat-inactivated FBS and 1% penicillin/streptomycin. NHSC and THSC (5×10^5 cells) were seeded in 6 cm dish and grown till 80% confluence, and then incubated with various concentrations of BL extract (100, 250, and 500 μg/ml) or curcumin (25 μM) for 12 and 24 h. Cells were collected and lysed with RIPA buffer (150 mM NaCl, 0.1% Triton X-100, 0.5% sodium deoxycholate, 0.1% SDS, 50 mM Tris-HCl, pH 8.0). Protease inhibitor (Roche Applied Science, Mannheim, Germany) containing pancreas extract, thermolysin, chymotrypsin, trypsin, and papain was mixed with 50 ml RIPA buffer before use. Protein samples (30 μg/well) were loaded and separated with SDS-PAGE, and then transferred to PVDF membrane (PerkinElmer, Turku, Finland). The membrane was blocked with 5% non-fat milk in TBST (20 mM Tris-HCl, pH 7.4, 137 mM NaCl, and 0.05% Tween-20) at room temperature for 1 h. The membranes were incubated with primary antibodies (Table 1) at 4° C. overnight. The membranes were washed 3 times with TBST and then incubated with horseradish peroxidase (HRP)-conjugated secondary antibodies at room temperature for 1 h. Following incubation with HRP-conjugated secondary antibodies, membranes were treated with ECL reagents (PerkinElmer) for 1 min, and results were developed on LAS-3000 film (Fujifilm, Tokyo, Japan).

THSC = test: Western blotting of protein expression levels; conditions: curcumin 25 μM
Description: as §2

MMP2 [3] = test: MMP2 level (gelatin zymography) in NHSC; conditions: curcumin 25 μM
Description: (§3) Protein expression level was determined by western blotting and normalized with β-actin. Data are normalized to normal control (N) and expressed as mean±SEM in triplicate determinations. a, vs. N; b, vs. Cur. *, p<0.05; **, p<0.01; ***, p<0.001. Non-induced hepatic stellate cells (NHSC, purity >95%) were isolated from male Sprague-Dawley rat liver, and Thioacetamide (TAA; Fluka Chemie GmbH, Buchs, Switzerland)-induced hepatic stellate cells (THSC, purity >95%) were isolated from TAA-induced fibrotic liver of male Sprague-Dawley rat (Chang et al., 2009). Both cells were maintained in complete DMEM containing 10% heat-inactivated FBS and 1% penicillin/streptomycin. The activity of MMP2 was assayed by gelatine zymography, which can detect the active form and latent form of MMP2. NHSC and THSC (2×10^5 cells) were seeded in 6 well plates and incubated for 70 to 80% confluence. Cells were starved in DMEM containing 0.1% BSA for 6 h, and then treated with various concentrations of BL extract (100, 250, and 500 μg/ml) or curcumin (25 μM) for 12 and 24 h. Media were collected and centrifuged at 12,000×g for 30 min at 4° C. The supernatants were collected and protein concentration was quantified by Bradford dye (Bio-Rad). 8% SDS-PAGE gels were prepared containing 10% gelatin. […] Gels were scanned using Epson scanner and quantified using multi-gauge software (Fujifilm).

MMP2 [4] = test: MMP2 level (gelatin zymography) in THSC; conditions: curcumin 25 μM, except 24 h treatment
Description: as §3

COc1cc(/C=C/C(=O)CC(=O)/C=C/c2ccc(O)c(OC)c2)ccc1O [curcumin]
lipid droplets (Oil red O) [1]: Fewer lipid droplets were increased | lipid droplets (Oil red O) [2]: Fewer lipid droplets were increased | Col 1 expression level (NHSC): failed to reduce | TGF-β1 level (NHSC): cannot reduce | TGF-β R1 level (NHSC): significantly reduced | α-SMA expression level (NHSC): failed to reduce | expression level of TIMP2 (NHSC; 24 h, vs normal control): significantly reduced | expression level of TIMP2 (THSC; 24 h, vs normal control): significantly reduced | Col 1 expression level (THSC; except 24 h treatment): failed to reduce | TGF-β1 level (THSC; except 24 h treatment): cannot reduce | α-SMA expression level (THSC; except 24 h treatment): failed to reduce | expression level of MMP2 (MMP2 [3]): can reduce | expression level of MMP2 (MMP2 [4]): can reduce
